Test results from US20130030017A1, “QUINOLINE DERIVATIVES AS ANTIBACTERIAL AGENTS” (priority 2005, published 2013).
≈ marks a conversion by molar mass, not a printed value.

Legend:
Type in all cases: cell-based
[1] = tested on: Staphylococcus aureus (ATCC29213); assay: Microtitre plate assay, IC90 determination (STA 29213); settings: 90% inhibitory concentration for bacterial growth, 37° C., resazurin fluorescence; for IC90 STA 29213: 24 hours; for IC90: Staphylococcus aureus, ATCC29213, 24 h
Protocol: (§1) The bacteria used in this study were grown overnight in flasks containing 100 ml Mueller-Hinton Broth (Becton Dickinson—cat. no. 275730) in sterile de-ionized water, with shaking, at 37° C. Stocks (0.5 ml/tube) were stored at −70° C. until use. Bacteria titrations were performed in microtiter plates and colony forming units (CFUs) were determined. In general, an inoculum level of approximately 100 CFUs was used for susceptibility testing.
(§2) Flat-bottom, sterile 96-well plastic microtiter plates were filled with 180 μl of sterile deionized water, supplemented with 0.25% BSA. Subsequently, stock solutions (7.8× final test concentration) of compounds were added in 45 μl volumes in column 2 Serial five-fold dilutions (45 μl in 180 μl) were made directly in the microtiter plates from column 2 to reach column 11. Untreated control samples with (column 1) and without (column 12) inoculum were included in each microtiter plate. Depending on the bacteria type, approximately 10 to 60 CFU per well of bacteria inoculum (100 TCID50), in a volume of 100 μl in 2.8× Mueller-Hinton broth medium, was added to the rows A to H, except column 12. The same volume of broth medium without inoculum was added to column 12 in row A to H. The cultures were incubated at 37° C. for 24 hours under a normal atmosphere (incubator with open air valve and continuous ventilation). At the end of incubation, one day after inoculation, the bacterial growth was quantitated fluorometrically. Therefore resazurin (0.6 mg/ml) was added in a volume of 20 μl to all wells 3 hours after inoculation, and the plates were re-incubated overnight. A change in colour from blue to pink indicated the growth of bacteria. The fluorescence was read in a computer-controlled fluorometer (Cytofluor Biosearch) at an excitation wavelength of 530 nm and an emission wavelength of 590 nm. The % growth inhibition achieved by the compounds was calculated according to standard methods. The IC90 (expressed in μg/ml) was defined as the 90% inhibitory concentration for bacterial growth.

[2] = tested on: Streptococcus pneumoniae (ATCC6305); assay: Microtitre plate assay, IC90 determination (SPN 6305); settings: 90% inhibitory concentration for bacterial growth, 37° C., resazurin fluorescence; for IC90 SPN 6305: 24 hours; for IC90: Streptococcus pneumoniae, ATCC6305, 24 h
Protocol: as §1, §2

[3] = tested on: Streptococcus pyogens (ATCC8668); assay: Microtitre plate assay, IC90 determination (SPY 8668); settings: 90% inhibitory concentration for bacterial growth, 37° C., resazurin fluorescence; for IC90 SPY 8668: 24 hours; for IC90: Streptococcus, ATCC8668, 24 h
Protocol: as §1, §2

[4] = tested on: Pseudomonas aeruginosa (ATCC27853); assay: Microtitre plate assay, IC90 determination (PAE 27853); settings: 90% inhibitory concentration for bacterial growth, 37° C., resazurin fluorescence; for IC90 PAE 27853: 24 hours; for IC90: Pseudomonas aeruginosa, ATCC27853, 24 h
Protocol: as §1, §2

[5] = tested on: Enterococcus faecalis (ATCC29212); assay: Microtitre plate assay, IC90 determination (EFA 29212); settings: 90% inhibitory concentration for bacterial growth, 37° C., resazurin fluorescence; for IC90 EFA 29212: 24 hours; for IC90: Enterococcus faecalis, ATCC29212, 24 h
Protocol: as §1, §2

Compound	IC90 STA 29213 [1]	IC90 SPN 6305 [2]	other results
COc1nc2ccc(Br)cc2cc1C(c1ccccc1)C(O)(CCc1cccc(OC(F)(F)F)c1)CCN(C)C (racemic) [Compound 45]	2.5 mg/L (≈ 4.05 µM)	0.4 mg/L (≈ 0.648 µM)	IC90 SPY 8668 [3]: 2.0 mg/L (≈ 3.24 µM); IC90 PAE 27853 [4]: 0.7 mg/L (≈ 1.13 µM); IC90 EFA 29212 [5]: 2.2 mg/L (≈ 3.56 µM)
COc1nc2ccc(Br)cc2cc1C(c1ccccc1)C(O)(CCc1ccc(C(F)(F)F)cc1)CCN(C)C (racemic) [Compound 46]	1.9 mg/L (≈ 3.16 µM)	0.5 mg/L (≈ 0.831 µM)	IC90 SPY 8668 [3]: 1.9 mg/L (≈ 3.16 µM); IC90 PAE 27853 [4]: 1.9 mg/L (≈ 3.16 µM); IC90 EFA 29212 [5]: 1.9 mg/L (≈ 3.16 µM)
COc1nc2ccc(Br)cc2cc1C(c1ccccc1)C(O)(CCc1ccc(F)cc1)CCN(C)C (racemic) [Compound 49]	11.0 mg/L (≈ 19.9 µM)	2.2 mg/L (≈ 3.99 µM)	IC90 SPY 8668 [3]: 43.8 mg/L (≈ 79.4 µM); IC90 PAE 27853 [4]: 43.8 mg/L (≈ 79.4 µM); IC90 EFA 29212 [5]: 43.8 mg/L (≈ 79.4 µM)
COc1nc2ccc(Br)cc2cc1C(c1ccccc1)C(O)(CCc1ccc(C)cc1)CCN(C)C (racemic) [Compound 52]	6.9 mg/L (≈ 12.6 µM)	1.4 mg/L (≈ 2.56 µM)	IC90 SPY 8668 [3]: 1.7 mg/L (≈ 3.1 µM); IC90 PAE 27853 [4]: 1.7 mg/L (≈ 3.1 µM); IC90 EFA 29212 [5]: 1.7 mg/L (≈ 3.1 µM)
COc1nc2ccc(Br)cc2cc1C(c1ccccc1)C(O)(CCc1ccc(Cl)cc1)CCN(C)C (racemic) [Compound 55]	1.8 mg/L (≈ 3.17 µM)	0.3 mg/L (≈ 0.528 µM)	
COc1nc2ccc(Br)cc2cc1C(c1ccccc1)C(O)(CCc1ccc(Cl)cc1)CCN(C)C (racemic) [Compound 56]	9.0 mg/L (≈ 15.8 µM)	5.7 mg/L (≈ 10 µM)	
COc1nc2ccc(Br)cc2cc1C(c1ccccc1)C(O)(CCc1ccc(Cl)c(Cl)c1)CCN(C)C (racemic) [Compound 57]	6.0 mg/L (≈ 9.96 µM)	0.5 mg/L (≈ 0.83 µM)	
COc1nc2ccc(-c3cccs3)cc2cc1C(c1ccccc1)C(O)(CCc1ccccc1)CCN(C)C (racemic) [Compound 63]	10.7 mg/L (≈ 19.9 µM)	2.1 mg/L (≈ 3.91 µM)	IC90 SPY 8668 [3]: 21.4 mg/L (≈ 39.9 µM); IC90 PAE 27853 [4]: 8.5 mg/L (≈ 15.8 µM); IC90 EFA 29212 [5]: 19.0 mg/L (≈ 35.4 µM)
COc1nc2ccc(C)cc2cc1C(c1ccccc1)C(O)(CCc1ccccc1)CCN(C)C (stereo not drawn) [Compound 2]	7.4 mg/L (≈ 15.8 µM)	1.9 mg/L (≈ 4.05 µM)	IC90 SPY 8668 [3]: 37.2 mg/L (≈ 79.4 µM); IC90 PAE 27853 [4]: 37.2 mg/L (≈ 79.4 µM); IC90 EFA 29212 [5]: 37.2 mg/L (≈ 79.4 µM)
COc1nc2ccc(Br)cc2cc1C(c1ccccc1)C(O)(CCc1ccccc1)CCN(C)C (stereo not drawn) [Compound 17]	8.5 mg/L (≈ 15.9 µM)	4.8 mg/L (≈ 9 µM)	
COc1nc2ccc(Br)cc2cc1C(c1ccccc1)C(O)(CCc1ccc(C(C)C)cc1)CCN(C)C (stereo not drawn) [Compound 24]	2.6 mg/L (≈ 4.52 µM)		IC90 [2]: 0.3 mg/L (≈ 0.521 µM)
COc1nc2ccc(Br)cc2cc1C(c1ccccc1)C(O)(CCc1ccc(F)cc1)CCN(C)C (stereo not drawn) [Compound 25]	7.8 mg/L (≈ 14.1 µM)	1.7 mg/L (≈ 3.08 µM)	
COc1nc2ccc(Br)cc2cc1C(c1ccccc1)C(O)(CCc1ccc(F)cc1)CCN(C)C (stereo not drawn) [Compound 27]	1.7 mg/L (≈ 3.08 µM)	2.0 mg/L (≈ 3.63 µM)	
COc1nc2ccc(CO)cc2cc1C(c1ccccc1)C(O)(CCc1ccccc1)CCN(C)C (stereo not drawn) [Compound 58]			IC90 [1]: 8.6 mg/L (≈ 17.7 µM); IC90 [2]: 8.6 mg/L (≈ 17.7 µM)
COc1nc2ccc(Br)cc2cc1C(c1ccc(Cl)cc1)C(O)(CCc1ccc(Cl)cc1)CCN(C)C (stereo not drawn) [Compound 75]	3.0 mg/L (≈ 4.98 µM)	3.4 mg/L (≈ 5.64 µM)	
COc1nc2ccc(Br)cc2cc1C(c1ccc(Cl)cc1)C(O)(CCc1ccc(C(F)(F)F)cc1)CCN(C)C (stereo not drawn) [Compound 89]			IC90 [1]: 22.6 mg/L (≈ 35.5 µM); IC90 [2]: 2.3 mg/L (≈ 3.62 µM)
COc1nc2ccc(Br)cc2cc1C(c1ccc(Cl)cc1)C(O)(CCc1cccc(OC(F)(F)F)c1)CCN(C)C (stereo not drawn) [Compound 91]		0.3 mg/L (≈ 0.46 µM)	IC90 [1]: 32.7 mg/L (≈ 50.2 µM)

Second part, led by results:

IC90 STA 29213 [1]	IC90 SPN 6305 [2]	Compound	other results
36.1 mg/L (≈ 79.4 µM)	4.1 mg/L (≈ 9.02 µM)	COc1nc2ccccc2cc1C(c1ccccc1)C(O)(CCc1ccccc1)CCN(C)C (racemic) [Compound 13]	
19.4 mg/L (≈ 35.4 µM)	2.2 mg/L (≈ 4.02 µM)	COc1nc2cc(C)c(Br)cc2cc1C(c1ccccc1)C(O)(CCc1ccccc1)CCN(C)C (racemic) [Compound 16]	IC90 SPY 8668 [3]: 2.2 mg/L (≈ 4.02 µM); IC90 PAE 27853 [4]: 2.2 mg/L (≈ 4.02 µM); IC90 EFA 29212 [5]: 10.9 mg/L (≈ 19.9 µM)
43.8 mg/L (≈ 79.4 µM)	8.7 mg/L (≈ 15.8 µM)	COc1nc2ccc(Br)cc2cc1C(c1ccccc1)C(O)(CCc1cccc(F)c1)CCN(C)C (racemic) [Compound 47]	
1.7 mg/L (≈ 3.08 µM)	2.2 mg/L (≈ 3.99 µM)	COc1nc2ccc(Br)cc2cc1C(c1ccccc1)C(O)(CCc1cccc(F)c1)CCN(C)C (racemic) [Compound 48]	IC90 SPY 8668 [3]: 43.8 mg/L (≈ 79.4 µM); IC90 PAE 27853 [4]: 43.8 mg/L (≈ 79.4 µM); IC90 EFA 29212 [5]: 43.8 mg/L (≈ 79.4 µM)
10.1 mg/L (≈ 17.8 µM)	2.3 mg/L (≈ 4.05 µM)	COc1nc2ccc(Br)cc2cc1C(c1ccccc1)C(O)(CCc1ccccc1Cl)CCN(C)C (racemic) [Compound 54]	IC90 SPY 8668 [3]: 2.0 mg/L (≈ 3.52 µM); IC90 PAE 27853 [4]: 2.0 mg/L (≈ 3.52 µM); IC90 EFA 29212 [5]: 4.5 mg/L (≈ 7.92 µM)
42.2 mg/L (≈ 79.5 µM)	10.6 mg/L (≈ 20 µM)	COc1nc2ccc(-c3ccccc3)cc2cc1C(c1ccccc1)C(O)(CCc1ccccc1)CCN(C)C (racemic) [Compound 59]	
53.1 mg/L (≈ 100 µM)	10.6 mg/L (≈ 20 µM)	COc1nc2ccc(-c3ccccc3)cc2cc1C(c1ccccc1)C(O)(CCc1ccccc1)CCN(C)C (racemic) [Compound 60]	
	7.5 mg/L (≈ 14.1 µM)	COc1nc2ccc(-c3cccnc3)cc2cc1C(c1ccccc1)C(O)(CCc1ccccc1)CCN(C)C (racemic) [Compound 61]	
8.3 mg/L (≈ 15.9 µM)	10.4 mg/L (≈ 20 µM)	COc1nc2ccc(-c3ccco3)cc2cc1C(c1ccccc1)C(O)(CCc1ccccc1)CCN(C)C (racemic) [Compound 62]	
42.6 mg/L (≈ 79.4 µM)	10.7 mg/L (≈ 19.9 µM)	COc1nc2ccc(-c3cccs3)cc2cc1C(c1ccccc1)C(O)(CCc1ccccc1)CCN(C)C (racemic) [Compound 64]	
	3.4 mg/L (≈ 7.02 µM)	COc1ccc2nc(OC)c(C(c3ccccc3)C(O)(CCc3ccccc3)CCN(C)C)cc2c1 (stereo not drawn) [Compound 3]	IC90 [3]: 9.7 mg/L (≈ 20 µM); IC90 [4]: 9.7 mg/L (≈ 20 µM); IC90 [1]: 12.2 mg/L (≈ 25.2 µM); IC90 [5]: 9.7 mg/L (≈ 20 µM)
10.9 mg/L (≈ 22.5 µM)	9.7 mg/L (≈ 20 µM)	COc1ccc2nc(OC)c(C(c3ccccc3)C(O)(CCc3ccccc3)CCN(C)C)cc2c1 (stereo not drawn) [Compound 4]	
11.0 mg/L (≈ 20 µM)	3.9 mg/L (≈ 7.1 µM)	CSc1nc2ccc(Br)cc2cc1C(c1ccccc1)C(O)(CCc1ccccc1)CCN(C)C (stereo not drawn) [Compound 11]	IC90 [3]: 8.7 mg/L (≈ 15.8 µM); IC90 [4]: 43.7 mg/L (≈ 79.5 µM); IC90 [5]: 43.7 mg/L (≈ 79.5 µM)
16.2 mg/L (≈ 28.1 µM)	0.3 mg/L (≈ 0.521 µM)	COc1nc2ccc(Br)cc2cc1C(c1ccccc1)C(O)(CCc1ccc(C(C)C)cc1)CCN(C)C (stereo not drawn) [Compound 23]	
7.7 mg/L (≈ 15.9 µM)	1.9 mg/L (≈ 3.92 µM)	CSc1nc2ccc(C)cc2cc1C(c1ccccc1)C(O)(CCc1ccccc1)CCN(C)C (stereo not drawn) [Compound 30]	
1.5 mg/L (≈ 3.27 µM)	0.3 mg/L (≈ 0.654 µM)	CNCCC(O)(CCc1ccc(F)cc1)C(c1ccccc1)c1cc2ccccc2nc1OC (stereo not drawn) [Compound 38]	
1.5 mg/L (≈ 2.79 µM)	0.3 mg/L (≈ 0.558 µM)	CNCCC(O)(CCc1ccc(F)cc1)C(c1ccccc1)c1cc2cc(Br)ccc2nc1OC (stereo not drawn) [Compound 40]	
	0.4 mg/L (≈ 0.664 µM)	COc1nc2ccc(Br)cc2cc1C(c1ccc(Cl)cc1)C(O)(CCc1ccc(Cl)cc1)CCN(C)C (stereo not drawn) [Compound 76]	IC90 [1]: 2.1 mg/L (≈ 3.49 µM)
4.1 mg/L (≈ 7.05 µM)	2.1 mg/L (≈ 3.61 µM)	COc1ccc(C(c2cc3cc(Br)ccc3nc2OC)C(O)(CCc2ccc(F)cc2)CCN(C)C)cc1 (stereo not drawn) [Compound 85]	
41.2 mg/L (≈ 70.8 µM)		COc1nc2ccc(Br)cc2cc1C(c1ccc(Cl)cc1)C(O)(CCc1ccc(C)cc1)CCN(C)C (stereo not drawn) [Compound 86]	IC90 [2]: 2.1 mg/L (≈ 3.61 µM)
16.4 mg/L (≈ 25.2 µM)	2.6 mg/L (≈ 3.99 µM)	COc1nc2ccc(Br)cc2cc1C(c1ccc(Cl)cc1)C(O)(CCc1cccc(OC(F)(F)F)c1)CCN(C)C (stereo not drawn) [Compound 90]	
